Test results reported in patent US20240287070A1, “FUSED HETEROCYCLIC DERIVATIVES” (Janssen Sciences Ireland Unlimited Company, priority 2021, published 2024).

What was measured:
[1] = system: HBV (HepG2.117 cell line, inducibly HBV producing); assay: Anti-HBV activity, intracellular HBV DNA by real-time PCR in HepG2.117 cell line; assay type: cell-based, hepatitis B virus; conditions: HepG2.117 cells, 3 days of treatment
Summary of the method: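 HepG2.117 cells (Tet-off, inducible HBV production) were induced to replicate HBV by doxycycline absence, then treated with serially diluted compound for 3 days. Activity was quantified as intracellular HBV DNA by real-time PCR using an HBV-specific primer set and probe.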

[2] = Cytotoxicity, ATPlite Luminescence Assay; assay type: cell-based, human; conditions: human, HepG2 or HepG2.117 cells, 3-days incubation unless marked with *
Summary of the method: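 Luminescent ATP quantitation served as the viability endpoint following a 3- or 4-day incubation with test compounds.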

[3] = Human liver microsome stability; assay type: in vitro ADME; conditions: 1 μM compound, NADPH 1 mM, 37° C., 0-60 min; for HLM Metabolism t1/2: pooled human liver microsomes 0.5 mg/mL; for half-life at 1 μM: human, pooled human liver microsomes, pH 7.4, pooled human liver microsomes 0.5 mg/mL, read-out: HLM Metabolism t1/2
Summary of the method: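 Single incubations with human liver microsomes started with 1 mM NADPH; samples taken at 0, 5, 10, 20, 40 and 60 min, quenched in acetonitrile (1:3). Cassette LC-MS analysis with internal standard; t½ derived from slope of ln peak-area ratio versus time (k = −gradient).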

[4] = Hepatitis B virus, HepG2.117, 72 h

With `Cc1nnnn1-c1ccc(C(C)N2C[C@@H](C)n3nc4c(c3C2=O)CN(C(=O)c2ccc(Cl)c(Cl)c2)[C@H](C)C4)cn1` (single isomer, unassigned) [Compound 27A, (3R,7R)-2-(3,4-dichlorobenzoyl)-3,7-dimethyl-9-((R*)-1-(6-(5-methyl-1H-tetrazol-1-yl)pyridin-3-yl)ethyl)-1,2,3,4,8,9-hexahydropyrido[4′,3′:3,4]pyrazolo[1,5-a]pyrazin-10(7H)-one] the EC50 [1] was 0.24 µM, the CC50 at 3 days [2] was > 50 µM and the “HLM Metabolism t1/2” value [3] was >3 h.
For `CC(c1ccc(S(C)(=O)=O)cc1)N1C[C@@H](C)n2nc3c(c2C1=O)CN(C(=O)c1ccc(Cl)c(Cl)c1)[C@H](C)C3` (single isomer, unassigned) [Compound 15A, (3R,7R)-2-(3,4-dichlorobenzoyl)-3,7-dimethyl-9-((R*)-1-(4-(methylsulfonyl)phenyl)ethyl)-1,2,3,4,8,9-hexahydropyrido[4′,3′:3,4]pyrazolo[1,5-a]pyrazin-10(7H)-one], the EC50 [1] was 0.063 µM, the CC50 at 3 days [2] was > 50 µM and the half-life at 1 μM [3] was > 3 h.
With `CC(c1ncc(C(F)(F)F)cn1)N1C[C@@H](C)n2nc3c(c2C1=O)CN(C(=O)c1ccc(Cl)c(Cl)c1)[C@H](C)C3` (single isomer, unassigned) [Compound 40A, (3R,7R)-2-(3,4-dichlorobenzoyl)-3,7-dimethyl-9-((R*)-1-(5-(trifluoromethyl)pyrimidin-2-yl)ethyl)-1,2,3,4,8,9-hexahydropyrido[4′,3′:3,4]pyrazolo[1,5-a]pyrazin-10(7H)-one] the EC50 [1] was 0.054 µM, the CC50 at 3 days [2] was 22 µM and the half-life at 1 μM [3] was > 3 h.
In the case of `C[C@@H]1Cc2nn3c(c2CN1C(=O)c1ccc(Cl)c(Cl)c1)C(=O)N([C@H](C)c1ccc([S@@](C)(=N)=O)cc1)C[C@H]3C` (relative stereo) [Compound 18B, (3R,7R)-2-(3,4-dichlorobenzoyl)-3,7-dimethyl-9-((R*)-1-(4-((S*)—S-methylsulfonimidoyl)phenyl)ethyl)-1,2,3,4,8,9-hexahydropyrido[4′,3′:3,4]pyrazolo[1,5-a]pyrazin-10(7H)-one], the EC50 [1, 4] is reported as 0.031 µM, the CC50 at 3 days [2] is reported as > 50 µM and the half-life at 1 μM [3] is reported as > 3 h.
For `CC(c1ccc(-n2cncn2)nc1)N1C[C@@H](C)n2nc3c(c2C1=O)CN(C(=O)c1ccc(Cl)c(Cl)c1)[C@H](C)C3` (single isomer, unassigned) [Compound 5A, (3R,7R)-9-((R*)-1-(6-(1H-1,2,4-Triazol-1-yl)pyridin-3-yl)ethyl)-2-(3,4-dichlorobenzoyl)-3,7-dimethyl-1,2,3,4,8,9-hexahydropyrido[4′,3′:3,4]pyrazolo[1,5-a]pyrazin-10(7H)-one], the EC50 [1] was 0.087 µM, the CC50 at 3 days [2] was > 50 µM and the half-life at 1 μM [3] was > 3 h.
In the case of `CC(c1ccc(C(C)(C)O)nc1)N1C[C@@H](C)n2nc3c(c2C1=O)CN(C(=O)c1ccc(Cl)c(F)c1F)[C@H](C)C3` (single isomer, unassigned) [Compound 61A, (3R,7R)-2-(4-chloro-2,3-difluorobenzoyl)-9-((R*)-1-(6-(2-hydroxypropan-2-yl)pyridin-3-yl)ethyl)-3,7-dimethyl-1,2,3,4,8,9-hexahydropyrido[4′,3′:3,4]pyrazolo[1,5-a]pyrazin-10(7H)-one], the EC50 [1] is reported as 2.34 µM, the CC50 at 3 days [2] is reported as > 50 µM and the half-life at 1 μM [3] is reported as > 3 h.
With `C[C@@H]1Cc2nn3c(c2CN1C(=O)c1ccc(Cl)c(C(F)(F)F)c1)C(=O)N([C@H](C)c1ccc([S@](C)(=N)=O)cc1)C[C@H]3C` (relative stereo) [Compound 19A, (3R,7R)-2-(4-chloro-3-(trifluoromethyl)benzoyl)-3,7-dimethyl-9-((R*)-1-(4-((R*)—S-methylsulfonimidoyl)phenyl)ethyl)-1,2,3,4,8,9-hexahydropyrido[4′,3′:3,4]pyrazolo[1,5-a]pyrazin-10(7H)-one] the EC50 [1, 4] was 0.026 µM, the CC50 at 3 days [2] was > 50 µM and the half-life at 1 μM [3] was > 3 h.
For `CC(c1ccn(C(F)F)c(=O)c1)N1C[C@@H](C)n2nc3c(c2C1=O)CN(C(=O)c1ccc(Cl)c(C(F)(F)F)c1)[C@H](C)C3` (single isomer, unassigned) [Compound 49A, (3R,7R)-2-(4-chloro-3-(trifluoromethyl)benzoyl)-9-((R*)-1-(1-(difluoromethyl)-2-oxo-1,2-dihydropyridin-4-yl)ethyl)-3,7-dimethyl-1,2,3,4,8,9-hexahydropyrido [4′,3′:3,4]pyrazolo[1,5-a]pyrazin-10(7H)-one], the EC50 [1] was 0.041 µM, the CC50 at 3 days [2] was > 50 µM and the “HLM Metabolism t1/2” value [3] was 1.32 h.
In the case of `C[C@@H]1Cc2nn3c(c2CN1C(=O)c1ccc(Cl)c(C(F)(F)F)c1)C(=O)N([C@@H](C)c1ccc([S@](C)(=N)=O)cc1)C[C@H]3C` (relative stereo) [Compound 19C, (3R,7R)-2-(4-chloro-3-(trifluoromethyl)benzoyl)-3,7-dimethyl-9-((S*)-1-(4-((R*)—S-methylsulfonimidoyl)phenyl)ethyl)-1,2,3,4,8,9-hexahydropyrido[4′,3′:3,4]pyrazolo[1,5-a]pyrazin-10(7H)-one], the EC50 [1, 4] is reported as 0.011 µM, the CC50 at 3 days [2] is reported as > 50 µM and the half-life at 1 μM [3] is reported as > 3 h.
In the case of `Cc1ccc(C(C)N2C[C@@H](C)n3nc4c(c3C2=O)CN(C(=O)c2ccc(Cl)c(Cl)c2)[C@H](C)C4)nn1` (single isomer, unassigned) [Compound 6A, (3R,7R)-2-(3,4-dichlorobenzoyl)-3,7-dimethyl-9-((R*)-1-(6-methylpyridazin-3-yl)ethyl)-1,2,3,4,8,9-hexahydropyrido[4′,3′:3,4]pyrazolo[1,5-a]pyrazin-10(7H)-one], the EC50 [1, 4] is reported as 0.086 µM, the CC50 at 3 days [2] is reported as > 50 µM and the “HLM Metabolism t1/2” value [3] is reported as 1.18 h.
With `Cc1nnc(C(C)N2C[C@@H](C)n3nc4c(c3C2=O)CN(C(=O)c2ccc(Cl)c(Cl)c2)[C@H](C)C4)o1` (single isomer, unassigned) [Compound 43A, (3R,7R)-2-(3,4-dichlorobenzoyl)-3,7-dimethyl-9-((R*)-1-(5-methyl-1,3,4-oxadiazol-2-yl)ethyl)-1,2,3,4,8,9-hexahydropyrido[4′,3′:3,4]pyrazolo[1,5-a]pyrazin-10(7H)-one] the EC50 [1] was 0.31 µM, the CC50 at 3 days [2] was > 50 µM and the half-life at 1 μM [3] was > 3 h.
For `CC(c1ccc(C(C)(C)O)nc1)N1C[C@@H](C)n2nc3c(c2C1=O)CN(C(=O)c1ccc(Cl)c(C(F)(F)F)n1)[C@H](C)C3` (single isomer, unassigned) [Compound 62A, (3R,7R)-2-(5-chloro-6-(trifluoromethyl)picolinoyl)-9-((R*)-1-(6-(2-hydroxypropan-2-yl)pyridin-3-yl)ethyl)-3,7-dimethyl-1,2,3,4,8,9-hexahydropyrido[4′,3′:3,4]pyrazolo[1,5-a]pyrazin-10(7H)-one], the EC50 [1] was 0.61 µM, the CC50 at 3 days [2] was > 50 µM and the half-life at 1 μM [3] was > 3 h.
For `CC(c1ccc(S(N)(=O)=O)cc1)N1C[C@@H](C)n2nc3c(c2C1=O)CN(C(=O)c1ccc(Cl)c(Cl)c1)[C@H](C)C3` (single isomer, unassigned) [Compound 16A, 4-((R*)-1-((3R,7R)-2-(3,4-dichlorobenzoyl)-3,7-dimethyl-10-oxo-1,2,3,4,7,8-hexahydropyrido[4′,3′:3,4]pyrazolo[1,5-a]pyrazin-9(10H)-yl)ethyl)benzenesulfonamide], the EC50 [1, 4] was 0.061 µM, the CC50 at 3 days [2] was > 50 µM and the half-life at 1 μM [3] was > 3 h.
With `C[C@@H]1Cc2nn3c(c2CN1C(=O)c1ccc(Cl)c(Cl)c1)C(=O)N([C@@H](C)c1ccc([S@](C)(=N)=O)cc1)C[C@H]3C` (relative stereo) [Compound 18C, (3R,7R)-2-(3,4-dichlorobenzoyl)-3,7-dimethyl-9-((S*)-1-(4-((R*)—S-methylsulfonimidoyl)phenyl)ethyl)-1,2,3,4,8,9-hexahydropyrido[4′,3′:3,4]pyrazolo[1,5-a]pyrazin-10(7H)-one] the EC50 [1, 4] was 0.03 µM, the CC50 at 3 days [2] was > 50 µM and the half-life at 1 μM [3] was > 3 h.
Work on `CC(C)Oc1cc(C(C)N2C[C@@H](C)n3nc4c(c3C2=O)CN(C(=O)c2ccc(Cl)c(C(F)(F)F)c2)[C@H](C)C4)ccn1` (single isomer, unassigned) [Compound 48A, (3R,7R)-2-(4-chloro-3-(trifluoromethyl)benzoyl)-9-((R*)-1-(2-isopropoxypyridin-4-yl)ethyl)-3,7-dimethyl-1,2,3,4,8,9-hexahydropyrido[4′,3′:3,4]pyrazolo [1,5-a]pyrazin-10(7H)-one] yielded an EC50 [1, 4] of 0.052 µM, a CC50 at 3 days [2] of 22.1 µM and a half-life at 1 μM [3] of 2.22 h.
In the case of `CC(c1cnc(C(C)(C)O)cn1)N1C[C@@H](C)n2nc3c(c2C1=O)CN(C(=O)c1ccc(Cl)c(C(F)(F)F)c1)[C@H](C)C3` (single isomer, unassigned) [Compound 41A, (3R,7R)-2-(4-chloro-3-(trifluoromethyl)benzoyl)-9-((R*)-1-(5-(2-hydroxypropan-2-yl)pyrazin-2-yl)ethyl)-3,7-dimethyl-1,2,3,4,8,9-hexahydropyrido[4′,3′:3,4]pyrazolo[1,5-a]pyrazin-10(7H)-one], the EC50 [1] is reported as 0.076 µM, the CC50 at 3 days [2] is reported as > 50 µM and the half-life at 1 μM [3] is reported as > 3 h.
In the case of `CC(c1ccc(C(C)(C)O)nc1)N1C[C@@H](C)n2nc3c(c2C1=O)CN(C(=O)c1ccc(Cl)c(Cl)c1)[C@H](C)C3` (single isomer, unassigned) [Compound 2A, (3R,7R)-2-(3,4-dichlorobenzoyl)-9-((R*)-1-(6-(2-hydroxypropan-2-yl)pyridin-3-yl)ethyl)-3,7-dimethyl-1,2,3,4,8,9-hexahydropyrido[4′,3′:3,4]pyrazolo[1,5-a]pyrazin-10(7H)-one], the EC50 [1] is reported as 0.099 µM, the CC50 at 3 days [2] is reported as > 50 µM and the half-life at 1 μM [3] is reported as > 3 h.
